Measured values taken from patent US4530714A, “N-aliphatic and N,N-aliphatic phosphoric triamide urease inhibitors and urease inhibited urea based fertilizer compositions” (Allied Corporation, priority 1984, dated 1985).

Legend:
urease [1] = test: Soil urease inhibition efficacy test, Cazenovia silt loam (New York soil); assay type: biochemical; conditions: 25° C., three days; for % Inhibition Cazenovian pH 7.3: Cazenovia silt loam pH 7.3, 800 micrograms compound and 42.8 mg urea per 20 g soil; for % Inhibition Cazenovian pH 7.0: Cazenovia silt loam pH 7.0, 200 micrograms compound per 20 g soil
Description: (§1) Efficacy tests were conducted to evaluate the efficacy of certain representative phosphoric triamide compounds as urease inhibitors. The inhibition tests were run in a New York soil (Cazenovia silt loam, pH 7.0 or 7.3) or in a Wisconsin Soil (Plano silt loam, pH 5.3). […] The bottle was capped with perforated aluminum foil and incubated at 25° C. for three days prior to extraction with 100 mL of a 2M potassium chloride solution containing 0.5 mg of phenylmercuric acetate. The extracts were then analyzed for remaining urea using an autoanalyzer. Percent inhibition was calculated as
(§2) % Inhibition=[1-(A-B/A-C)]×100%
(§3) where A is urea recovered from unincubated sample (urea added to soil and immediately extracted); B is urea recovered from inhibited sample; and C is urea recovered from the control (uninhibited sample).

urease [2] = test: Soil urease inhibition efficacy test, Plano silt loam (Wisconsin soil); assay type: biochemical; conditions: Plano silt loam pH 5.3, 25° C., three days
Description: as §1, §2, §3

urease [3] = test: Long term urease inhibition, inhibited Cazenovia soil preincubated or left open 11 days before urea application; assay type: biochemical; conditions: 200 micrograms compound; for % Inhibition, Preincubated for 11 days Open: allowed to volatilize for 11 days prior to urea application; for % Inhibition, Preincubated for 11 days at 25° C.: inhibited soil incubated 11 days at 25° C. prior to urea application; for % Inhibition, Preincubated for 11 days at 35° C.: inhibited soil incubated 11 days at 35° C. prior to urea application
Description: Efficacy tests were conducted to evaluate the efficacy of certain representative phosphoric triamide compounds as urease inhibitors. The inhibition tests were run in a New York soil (Cazenovia silt loam, pH 7.0 or 7.3) or in a Wisconsin Soil (Plano silt loam, pH 5.3). Evaluations (run in triplicate) consisted of applying 800 micrograms of the test compound in 5 mL of water and 42.8 mg of urea in 1 mL of water to 20 g of air-dry soil in a glass bottle. The bottle was capped with perforated aluminum foil and incubated at 25° C. for three days prior to extraction with 100 mL of a 2M potassium chloride solution containing 0.5 mg of phenylmercuric acetate. The extracts were then analyzed for remaining urea using an autoanalyzer. Percent inhibition was calculated as
as §2, §3
The percent inhibition observed, as determined by the means described in Example XVI except using 200 micrograms of the test compound, are set forth in Table II

[4] = Solubility in water (as needed for efficacy test); assay type: physicochemical; conditions: efficacy test application
urease [5] = test: Percent inhibition versus time in soil (FIG. 1, FIG. 2); assay type: biochemical; conditions: soil at 25° C. (FIG. 1) and 35° C. (FIG. 2); compared with phenyl phosphorodiamidate
Description: FIG. 1 is a plot of percent inhibition versus time in soils at 25° C. for N,N-diethylphosphorictriamide, a urease inhibitor useful in the practice of this invention, and for the known urease inhibitor, phenyl phosphorodiamidate, and FIG. 2 is a plot of percent inhibition versus time in soil at 35° C. for the same compounds.

[6] = 200 micrograms compound per 20 g soil
[7] = 800 micrograms compound and 42.8 mg urea per 20 g soil

Structure (SMILES): CN(Cc1ccccc1)P(N)(N)=O [Compound 4, N-Benzyl-N-methylphosphoric Triamide]
- % Inhibition Cazenovian pH 7.3 (urease [1]): 96%

Structure (SMILES): CN(Cc1ccccc1)P(N)(N)=S [Compound 16, N-Benzyl-N-methylthiophosphoric Triamide]
- % Inhibition Cazenovian pH 7.0 (urease [1]): 43%
- % Inhibition Wisconsin pH 5.3 (urease [2]; [6]): 24%

Structure (SMILES): CCCCCCNP(N)(N)=S [Compound 18, N-(n-Hexyl)thiophosphoric Triamide]
- % Inhibition Cazenovian pH 7.0 (urease [1]): 97%
- % Inhibition Wisconsin pH 5.3 (urease [2]; [6]): 52%

Structure (SMILES): CC(C)NP(N)(N)=O [Compound 7, N-Isopropylphosphoric Triamide]
- % Inhibition Cazenovian pH 7.3 (urease [1]): 97%

Structure (SMILES): CCCCCCCCNP(N)(N)=O [Compound 12, N-(n-Octyl)phosphoric Triamide]
- % Inhibition Cazenovian pH 7.3 (urease [1]): 98%
- % Inhibition Wisconsin pH 5.3 (urease [2]; [7]): 51%
- % Inhibition, Preincubated for 11 days Open (urease [3]): 66%
- % Inhibition, Preincubated for 11 days at 25° C. (urease [3]): 39%
- % Inhibition, Preincubated for 11 days at 35° C. (urease [3]): 36%
- % Inhibition, No Preincubation (urease [3]): 95%

Structure (SMILES): CCCCCCCCCCCCNP(N)(N)=O [Compound 13, N-(n-Dodecyl)phosphoric Triamide]
- % Inhibition Cazenovian pH 7.3 (urease [1]): 81%
- % Inhibition Wisconsin pH 5.3 (urease [2]; [7]): 28%

Structure (SMILES): NP(N)(=S)N1CCCC1 [Compound 19, N-(Diaminothiophosphinyl)pyrrolidine]
- % Inhibition Cazenovian pH 7.0 (urease [1]): 77%
- % Inhibition Wisconsin pH 5.3 (urease [2]; [6]): 23%

Structure (SMILES): CN(C1CCCCC1)P(N)(N)=O [Compound 15, N-Cyclohexyl-N-methylphosphoric Triamide]
- % Inhibition Cazenovian pH 7.3 (urease [1]): 92%
- % Inhibition Wisconsin pH 5.3 (urease [2]; [7]): 48%
- % Inhibition, Preincubated for 11 days Open (urease [3]): 67%
- % Inhibition, Preincubated for 11 days at 25° C. (urease [3]): 78%
- % Inhibition, Preincubated for 11 days at 35° C. (urease [3]): 78%
- % Inhibition, No Preincubation (urease [3]): 80%

Structure (SMILES): NP(N)(=S)N1CCCCC1 [Compound 22, N-(Diaminothiophosphinyl)piperidine]
- % Inhibition Cazenovian pH 7.0 (urease [1]): 66%
- % Inhibition Wisconsin pH 5.3 (urease [2]; [6]): 0%

Structure (SMILES): NP(N)(=O)NC1CCCCC1 [Compound 5, N-Cyclohexylphosphoric Triamide]
- % Inhibition Cazenovian pH 7.3 (urease [1]): 98%

Structure (SMILES): CCN(CC)P(N)(N)=S [Compound 14, N,N-Diethylthiophosphoric Triamide]
- % Inhibition Cazenovian pH 7.3 (urease [1]): 61%
- % Inhibition Wisconsin pH 5.3 (urease [2]; [7]): 53%

Structure (SMILES): NP(N)(=O)N1CCCCC1 [Compound 6, N-(Diaminophosphinyl)piperidine]
- % Inhibition Cazenovian pH 7.3 (urease [1]): 94%

Structure (SMILES): NP(N)(=S)NC1CCCCC1 [Compound 17, N-Cyclohexylthiophosphoric Triamide]
- % Inhibition Cazenovian pH 7.0 (urease [1]): 84%
- % Inhibition Wisconsin pH 5.3 (urease [2]; [6]): 58%

Structure (SMILES): CCCCN(CCCC)P(N)(N)=S [Compound 23, N,N-Di-(n-Butyl)thiophosphoric Triamide]
- % Inhibition Cazenovian pH 7.0 (urease [1]): 67%
- % Inhibition Wisconsin pH 5.3 (urease [2]; [6]): 37%

Structure (SMILES): CC(C)N(C(C)C)P(N)(N)=S [Compound 21, N,N-Diisopropylthiophosphoric Triamide]
- solubility in water [4]: too insoluble in water to obtain significant data

Structure (SMILES): CN(C)P(N)(N)=O [Compound 2, N,N-Dimethylphosphoric Triamide]
- % Inhibition Cazenovian pH 7.3 (urease [1]): 98%

Structure (SMILES): CCC(C)NP(N)(N)=O (stereo not shown) [Compound 11, N-(sec-Butyl)phosphoric Triamide]
- % Inhibition Cazenovian pH 7.3 (urease [1]): 96%
- % Inhibition Wisconsin pH 5.3 (urease [2]; [7]): 66%
- % Inhibition, Preincubated for 11 days Open (urease [3]): 77%
- % Inhibition, Preincubated for 11 days at 25° C. (urease [3]): 90%
- % Inhibition, Preincubated for 11 days at 35° C. (urease [3]): 85%
- % Inhibition, No Preincubation (urease [3]): 92%

Structure (SMILES): CCCCNP(N)(N)=O [Compound 9, N-(n-Butyl)phosphoric Triamide]
- % Inhibition Cazenovian pH 7.3 (urease [1]): 99%
- % Inhibition Wisconsin pH 5.3 (urease [2]; [7]): 52%
- % Inhibition, Preincubated for 11 days Open (urease [3]): 78%
- % Inhibition, Preincubated for 11 days at 25° C. (urease [3]): 75%
- % Inhibition, Preincubated for 11 days at 35° C. (urease [3]): 68%
- % Inhibition, No Preincubation (urease [3]): 96%

Structure (SMILES): C=CCNP(N)(N)=O [Compound 3, N-Allylphosphoric Triamide]
- % Inhibition Cazenovian pH 7.3 (urease [1]): 93%

Structure (SMILES): CCNP(N)(N)=O [Compound 8, N-Ethylphosphoric Triamide]
- % Inhibition Cazenovian pH 7.3 (urease [1]): 99%
- % Inhibition Wisconsin pH 5.3 (urease [2]; [7]): 47%
- % Inhibition, Preincubated for 11 days Open (urease [3]): 72%
- % Inhibition, Preincubated for 11 days at 25° C. (urease [3]): 74%
- % Inhibition, Preincubated for 11 days at 35° C. (urease [3]): 55%
- % Inhibition, No Preincubation (urease [3]): 95%

Structure (SMILES): CCC(C)NP(N)(N)=S (stereo not shown) [Compound 20, N-(sec-Butyl)thiophosphoric Triamide]
- % Inhibition Cazenovian pH 7.0 (urease [1]): 65%
- % Inhibition Wisconsin pH 5.3 (urease [2]; [6]): 51%

Structure (SMILES): CCN(CC)P(N)(N)=O [Compound 1, N,N-Diethylphosphoric Triamide]
- % Inhibition Cazenovian pH 7.3 (urease [1]): 94%
- duration of the urease inhibiting activity (urease [5]): much superior

Structure (SMILES): CCCCNP(N)(N)=S [Compound 10, N-(n-Butyl)thiophosphoric Triamide]
- % Inhibition Cazenovian pH 7.3 (urease [1]): 98%
- % Inhibition Wisconsin pH 5.3 (urease [2]; [7]): 95%
- % Inhibition, Preincubated for 11 days Open (urease [3]): 94%
- % Inhibition, Preincubated for 11 days at 25° C. (urease [3]): 98%
- % Inhibition, Preincubated for 11 days at 35° C. (urease [3]): 89%
- % Inhibition, No Preincubation (urease [3]): 90%

Structure (SMILES): NP(N)(=O)Oc1ccccc1 [Phenyl Phosphorodiamidate, phenyl phosphorodiamidate, reference compound]
- % Inhibition, Preincubated for 11 days Open (urease [3]): 50%
- % Inhibition, Preincubated for 11 days at 25° C. (urease [3]): 26%
- % Inhibition, Preincubated for 11 days at 35° C. (urease [3]): 16%
- % Inhibition, No Preincubation (urease [3]): 76%
